Data reported in patent publication US20150182487A1, “COMPOSITION FOR PREVENTING AND TREATING INFLAMMATORY DISEASES AND IMMUNE DISEASES, CONTAINING APO-9`-FUCOXANTHINONE AS ACTIVE INGREDIENT” (JEJU NATIONAL UNIVERSITY INDUSTRY ACADEMIC COOPERATION …, priority 2012, published 2015).

Key:
[1] = test system: bone marrow-derived macrophages; assay: MTT assay of pyroptotic cell death of bone marrow-derived macrophages treated with LPS and ATP; format: cell-based, mouse; conditions: bone marrow-derived macrophages treated with both LPS and ATP; compound 6.25-50 μM; FIG. 9 lower graph
Protocol: When LPS primed bone marrow-derived macrophages are treated with ATP, NLPR3 inflammasome is activated, and, thus, IL-1β is secreted. Therefore, in order to check whether the apo-9′-fucoxanthinone compound has an effect of inhibiting the NLRP3 inflammasome, the inventors of the present invention checked a degree of IL-1β production induced by ATP in LPS primed BMDMs using ELISA To do so, the bone marrow-derived macrophages cultured in the same manner as Example 2 were dispensed at 1×10^5 cells/0.5 ml in a 48-well plate, and these cells were treated with LPS at a concentration of 10 ng/ml for 18 hours. Then, the cells were treated with the apo-9′-fucoxanthinone compound at each concentration (0, 6.25, 12.5, 25, and 50 μM) for 1 hour. At 2 hours after treatment with ATP at a concentration of 5 mM, a cell culture medium was obtained and an expression amount of IL-1β was measured using ELISA (R&D system, MN, USA). […]
That is, the cells treated as described above were treated with 0.2 mg of an MTT reagent and cultured at a temperature of 37° C. for 4 hours. After culture, the cells were collected and formazan crystals in each well were dissolved in 250 μl of DMSO, and then, an absorbance at 540 nm was measured to measure cell viability.

[2] = test system: IL-12 p40, IL-6, and TNF-α; assay: ELISA of pro-inflammatory cytokine production in CpG-ODN-stimulated bone marrow-derived macrophage; format: cell-based, mouse; conditions: compound 5, 10, 20, 50 μM for 1 hour before CpG-ODN (1 μM), FIG. 4
Protocol: (§1) Bone marrow-derived dendritic cells (BMDC) and macrophage (BMDM) were obtained from a wild-type C57BL/6 mouse. To be brief, bone marrow cells were obtained by flushing a tibia and femur of the mouse with DMEM (Dulbecco's modified Eagles medium). The cells were cultured in a medium RPMI 1640 including 10% heat-inactivated FBS (Gibco, NY, U.S.A.), 50 μM of β-mercapto ethanol, and 2 mM glutamine and supplemented with 3% hybridoma cell culture supernatant J558L containing granulocyte-macrophage colony-stimulating factor (GM-CSF) for BMDCs.
Further, the obtained bone marrow cells were cultured in a DMEM including 20% heat-inactivated FBS, a 30% L929 cell culture supernatant containing a macrophage colony-stimulating factor, and 1% penicillin-streptomycin for BMDMs.
(§2) In order to check whether the Sargassum muticum extracts obtained in the present invention has an anti-inflammatory and an immunomodulatory activity, the following experiments were conducted with the Sargassum muticum extracts obtained in Example <1-1>. That is, bone marrow-derived macrophage and dendritic cells cultured as described above were seeded at 1×10^5 cells/0.5 ml in a 48-well plate. […] Supernatants were harvested 18 hour after stimulation. Amounts of IL-12 p40, IL-6, and TNF-α were measured using ELISA (BD PharMingen, CA, USA and R&D system, MN, USA). […]

AP-1 = AP-1 reporter luciferase assay in TLR9-transfected HEK293T cells stimulated with CpG-ODN; format: cell-based; conditions: HEK293T cells transfected with murine TLR9-expressing plasmid; pre-treated 1 hour before CpG DNA (1 μM), 18 hour; FIG. 7
Protocol: It is known that activation of an MAPK signaling pathway activates a transcriptional factor AP-1, thereby increasing a DNA binding activity of AP-1 and expression of an AP-1-dependent gene. […] Firstly, HEK239T cells were plated in a 24-well plate and cultured overnight. Then, HEK293T cells were transfected with pcDNA3 (empty vector) or pcDNA3-mTLR9 that expresses murine TLR9, with an AP-1 reporter gene and pRLnull (Promega, WI, USA) using a Fugene 6 (Roche, UN, USA). Cells were then further incubated for 24 hour, and then pre-treated with the apo-9′-fucoxanthinone compound at each concentration as described in the above Examples for 1 hour before stimulation with CpG DNA (1 μM). After further incubation for 18 hour, the cells were lysed with a passive lysis buffer (Promega), and then analyzed using a dual luciferase reporter assay system (Promega). All of the experiments were repeated three times, and the results thereof were expressed in the fold increase.

ERK1/2 (ERK p44/p42) = assay: Western blot of MAPK phosphorylation in CpG-ODN-stimulated macrophages; format: cell-based, mouse; conditions: macrophages pre-treated at 20 μM for 1 hour before CpG-ODN; FIG. 6A
Protocol: (§3) In order to check whether the apo-9′-fucoxanthinone compound has an effect on activities of MAPK and NF-κB that are upstream signal transduction pathways for pro-inflammatory cytokine production, a Western blot analysis was conducted as follows. That is, the macrophages were dispensed to 60-mm culture dishes at 4×10^6 cells per dish, and then cultured for 24 hours at 37° C. The cells were pre-treated with the apo-9′-fucoxanthinone compound at a concentration of 20 μM for 1 hour before treatment with CpG-ODN. The cells were collected and dissolved using a lysis buffer (PRO-PREP Lysis buffer, iNtRON Biotechnology). Protein samples were electrophoresed in 10%-SDS PAGE, and then electrophoresed in a polyvinylidene fluoride membrane, and then treated and reacted with phospho-p44/42 (P-ERK p44/p42), phospho-p38 (P-p38), p38 MAPK, phospho-SAPK/JNK (P-JNK), phospho-IκBα, and IκBα (Cell Signaling Technology, MA, USA) as 1/1000 diluted primary antibodies. Thereafter, the membrane was washed and treated and reacted with horseradish peroxidase-linked anti-rabbit IgG (Cell Signaling Technology). Then, a signal was checked using a WEST-ZOL plus western blot detection system (iNtRON Biotechnology).

[3] = test system: IL-12 p40, IL-6, and TNF-α; assay: ELISA of pro-inflammatory cytokine production in CpG-ODN-stimulated bone marrow-derived dendritic cells; format: cell-based, mouse; conditions: compound 5, 10, 20, 50 μM for 1 hour before CpG-ODN (1 μM), FIG. 5
Protocol: as §1
as §2, with “USA). At this time, a non-treated group, a group treated with the extracts only, and a group treated with CpG-ODN only without treatment with the extracts were used as a control group.” for “USA).”

IκBα = assay: Western blot of degradation and phosphorylation of IκBα in CpG-ODN-stimulated macrophages; format: cell-based, mouse; conditions: macrophages pre-treated at 20 μM for 1 hour before CpG-ODN; FIG. 6B
Protocol: as §3

NLRP3 inflammasome = target: T1, NLRP3 inflammasome (Mus musculus, UniProt Q8R4B8); assay: ELISA of IL-1β production induced by ATP in LPS primed BMDMs; format: cell-based; conditions: BMDMs primed with LPS 10 ng/ml 18 hours; compound 6.25, 12.5, 25, 50 μM 1 hour; ATP 5 mM 2 hours; FIG. 9 upper graph
T1 construct: checked a degree of IL-1β production induced by ATP in LPS primed BMDMs using ELISA; endogenous in cells; host or cells: bone marrow-derived macrophages (BMDM) from wild-type C57BL/6 mouse, LPS-primed and ATP-stimulated
T1 sequence (Q8R4B8 whole entry): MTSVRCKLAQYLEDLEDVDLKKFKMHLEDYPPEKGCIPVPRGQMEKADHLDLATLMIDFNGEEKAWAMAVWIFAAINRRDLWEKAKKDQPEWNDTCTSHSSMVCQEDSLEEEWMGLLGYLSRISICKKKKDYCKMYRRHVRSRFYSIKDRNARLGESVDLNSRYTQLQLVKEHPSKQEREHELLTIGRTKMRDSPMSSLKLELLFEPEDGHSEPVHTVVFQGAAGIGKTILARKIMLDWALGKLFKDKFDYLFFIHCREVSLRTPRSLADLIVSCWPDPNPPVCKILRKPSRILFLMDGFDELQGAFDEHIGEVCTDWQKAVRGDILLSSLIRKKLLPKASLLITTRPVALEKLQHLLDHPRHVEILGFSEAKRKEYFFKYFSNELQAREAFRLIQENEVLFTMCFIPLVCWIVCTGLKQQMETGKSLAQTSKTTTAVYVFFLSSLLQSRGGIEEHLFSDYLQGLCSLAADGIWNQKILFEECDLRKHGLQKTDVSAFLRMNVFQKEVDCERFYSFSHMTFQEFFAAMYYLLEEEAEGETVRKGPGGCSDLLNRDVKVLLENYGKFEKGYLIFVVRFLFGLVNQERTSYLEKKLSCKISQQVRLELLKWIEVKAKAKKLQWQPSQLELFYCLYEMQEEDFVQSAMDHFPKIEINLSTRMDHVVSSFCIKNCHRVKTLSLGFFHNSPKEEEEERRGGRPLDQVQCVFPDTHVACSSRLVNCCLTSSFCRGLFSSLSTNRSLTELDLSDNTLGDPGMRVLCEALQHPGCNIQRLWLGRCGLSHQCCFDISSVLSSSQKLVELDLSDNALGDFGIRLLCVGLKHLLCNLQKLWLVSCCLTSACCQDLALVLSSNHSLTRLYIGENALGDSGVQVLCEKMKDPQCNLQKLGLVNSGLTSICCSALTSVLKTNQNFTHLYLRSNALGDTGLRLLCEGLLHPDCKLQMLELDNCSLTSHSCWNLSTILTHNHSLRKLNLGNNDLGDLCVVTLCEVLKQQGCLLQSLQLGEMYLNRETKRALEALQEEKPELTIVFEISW
Protocol: When LPS primed bone marrow-derived macrophages are treated with ATP, NLPR3 inflammasome is activated, and, thus, IL-1β is secreted. Therefore, in order to check whether the apo-9′-fucoxanthinone compound has an effect of inhibiting the NLRP3 inflammasome, the inventors of the present invention checked a degree of IL-1β production induced by ATP in LPS primed BMDMs using ELISA To do so, the bone marrow-derived macrophages cultured in the same manner as Example 2 were dispensed at 1×10^5 cells/0.5 ml in a 48-well plate, and these cells were treated with LPS at a concentration of 10 ng/ml for 18 hours. Then, the cells were treated with the apo-9′-fucoxanthinone compound at each concentration (0, 6.25, 12.5, 25, and 50 μM) for 1 hour. At 2 hours after treatment with ATP at a concentration of 5 mM, a cell culture medium was obtained and an expression amount of IL-1β was measured using ELISA (R&D system, MN, USA). Further, as a positive control group, a group treated with 10 μM parthenolide (described as “part” in the drawings) known as an NLRP3 inflammasome inhibitor was used.

CC(=O)C=C=C1C(C)(C)C[C@H](OC(C)=O)C[C@@]1(C)O [apo-9′-fucoxanthinone]
pyroptotic cell death (cell viability, MTT) [1]: inhibiting pyroptotic cell death
pro-inflammatory cytokine production (IL-12 p40, IL-6, TNF-α) [2]: effectively inhibiting
AP-1-dependent luciferase activity (AP-1): decreased in a dose-dependent manner
phosphorylation of ERK1/2 (ERK p44/p42) (ERK1/2 (ERK p44/p42)): strongly inhibited
pro-inflammatory cytokine production (IL-12 p40, IL-6, TNF-α) [3]: effectively inhibiting
degradation and phosphorylation of IκBα (IκBα): did not greatly affect
production of IL-1β (NLRP3 inflammasome): effectively inhibited in a dose-dependent manner
